Results on one substance are retold here after patent US8106017B2, “Peptides for promoting hair growth and improving wrinkle and cosmetic compositions comprising the same” (Caregen Co., Ltd., priority 2005, dated 2012).

One assay has as its system BALB/MK karatinocytes. In words: [3H]-thymidine incorporation, measurement of biological activities. The format is cell-based. To be noted: FIG. 5; for biological activity compared with natural thymosin β-4: BALB/MK keratinocytes, thymidine incorporation. Here is the method:
The biological activities of the purified acetyl-octapetide of Example 2 were evaluated using BALB/MK karatinocytes according to Falco et al method to measure [^3H]-thymidine incorporation (Falco, et al. (1988) Oncogene., 2, 573). BALB/MK karatinocytes were cultured in 250 ml-flasks containing EMEM (Eagle's minimal essential media, Gibco, U.S.A.) supplemented with […] (fetal bovine serum). BALB/MK karatinocytes cultured were treated with 0.25% trypsin solution to detach cells from the bottom of culture flasks and centrifuged to collect cell pellets. Cells were resuspended in EMEM not containing FBS, its aliquot, 2×10^4 cells/0.3 ml medium was added to each well of 24-well plates and cultured under 7% CO2 for 24 hr at 37° C. 2 ng/ml of the acetyl octapeptide prepared in Example 2 was serially diluted by two-fold using EMEM containing 0.2 (w/v) % bovine serum albumin and 0.3 ml of the diluted peptide was added to each well, followed by additional culturing under 7% CO2 for 6 hr at 37° C. Afterwards, 0.5 μCi of [^3H]-thymidine (Amersham, TRK 686, 68 Ci/mmol) was added to each well and incubated overnight. After removing supernatants, cells were washed once using PBS (phosphate buffered saline) and incubated with 0.1 ml of 0.25% trypsin solution for 5 min at 37° C. to detach cells from the bottom of plates. 0.5 ml of EMEM containing 10% FBS was added to each well and cells were adhered to glass fiber filters using a cell harvester (12 well cell harvester, Millipore, U.S.A.). The filters were washed once with 1 ml of distilled water and once with 1 ml of ethanol, and kept to stand for 30 min at 60° C. for drying. The dried filters were added along with 2 ml of scintillation cocktail to scintillation vials and allowed to stand for 30 min at room temperature, after which radioactivity incorporated into cells was determined using a scintillation counter (Beckman, U.S.A) as shown in FIG. 5.
(Dividing cells build labelled thymidine or BrdU into new DNA.)

In the next assay the test system is HaCaT keratinocytes. In words: SRB colorimetric assay, growth of HaCaT keratinocytes. To be noted: 10 ng/ml or 1,000 ng/ml, 72 hr, serum-free medium; FIGS. 7 and 8. The format is cell-based, human. How it is done:
To analyze effects of peptides of this invention on proliferation of keratinocytes, SRB (Sulforhodamine B) colorimetric assay was carried out using HaCaT kerationcyte according to Rizzino et al method (Rizzino, et al. Cancer Res., 48:4266 (1988)). HaCaT ketatinocytes (The Korean Cell Line Bank) were cultured in 250 ml-flasks containing EMEM (Eagle's minimal essential media, Gibco, U.S.A.) supplemented with […] (fetal bovine serum). HaCaT ketatinocytes cultured were treated with 0.25% trypsin solution to detach cells from the bottom of culture flasks and centrifuged to collect cell pellets. Cells were resuspended in EMEM not containing FBS, its aliquot (4×10^3) cells was added to each well of 96-well plates and cultured under 7% CO2 for 24 hr at 37° C. After 24-hr culture, the medium was changed with a fresh medium not containing serum and cells were incubated with thymosin β-4 or the acetyl-octapeptide (10 ng/ml or 1,000 ng/ml) dissolved in 10% DMSO for 72 hr under the same conditions as described above. After removing supernatants, cells were washed once using PBS (phosphate buffered saline) and incubated with SRB solution (Sigma-Aldrich). Cells were washed with PBS and observed under a microscope to find cell viability. In addition, absorbance at 590 nm was measured to analyze cell proliferation (FIG. 7). […]

The next assay relates to procollagen. In words: Procollagen level in HaCaT cell line (Procollagen ELISA kit). The format is cell-based, human. Particulars: HaCaT keratinocytes, 1 μg/ml; FIG. 9. How it is done:
(§1) Furthermore, HaCaT cell line was treated with the acetyl-octapeptide of this invention (1 μg/ml) and the level of procollagen, one of indicators to show the improvement in skin wrinkle, was examined (FIG. 9). The level of procollagen was measured using Procollagen ELISA kit (Takara). For verifying effects on levels of hyaluronic acid, another indicator representing the improvement in skin wrinkle, HaCaT cell line was incubated with the acetyl-octapeptide of this invention (5 μmole) and the level of hyaluronic acid was measured using Hyaluronic acid ELISA kit (Echelon Biosciences Inc, USA) (FIG. 10).
(ELISA stands for enzyme-linked immunosorbent assay.)

The next assay deals with hyaluronic acid. Kind of assay: Hyaluronic acid level in HaCaT cell line (Hyaluronic acid ELISA kit). Particulars: HaCaT keratinocytes, 5 μmole; FIG. 10. The format is cell-based, human. Here is the method:
as §1

A further assay relates to C3H/HeN mice. Kind of assay: Hair-growth activities in mice with hair removed. Particulars: Formulation Example 5 applied on back for 25 days, initial hair growth effects, hair length and number, FIG. 12. In kind it is in vivo. From the text: The hairs of the back portions of C3H/HeN mice were completely removed using a hair cutter and a hair loss-inducing substance. One day later, Formulation Example 5 (cosmetic liquid) was applied onto the back portions for 25 days and then hair growth was observed.

Take “Ac-Lys-Leu-Lys-Lys-Thr-Glu-Thr-Gln-OH (Ac-KLKKTETQ-OH) [acetyl octapeptide]”: in the assay with BALB/MK karatinocytes (2 ng/ml serially diluted two-fold), the “[3H]-thymidine incorporation into keratinocytes” value is reported as “promotes thymidine incorporation into kerationcytes in a dose-dependent fashion”. For the same substance, the “biological activity compared with natural thymosin β-4” value with BALB/MK karatinocytes was “high biological activities similar to intact Tβ-4F”; with BALB/MK karatinocytes (listed as present peptide), “biological activities almost identical to natural-occurring Tβ4”. Also, in the assay with HaCaT keratinocytes, the “cell viability / proliferation of HaCaT keratinocytes versus control” value is “much higher cell viability than control”. Further, the “level of procollagen in cells” value in the assay with procollagen was “increased in a dose-dependent manner”. In the assay with hyaluronic acid, the “level of hyaluronic acid in cells” value is “increased in a dose-dependent manner”. For the same substance, the “increase of hair growth compared with control” value in the assay on C3H/HeN mice is recorded as 25-30%.
